± gives the expanded uncertainty stated by the source.
Details: Liquid, Vibrating tube method

CCCC[n+]1ccn(C)c1.O=S(=O)([N-]S(=O)(=O)C(F)(F)F)C(F)(F)F
Details	mass density [kg/m3]
293.15 K, 100 kPa	1441.8 ± 12
293.15 K, 101.33 kPa	1441.34 ± 12
293.15 K, 250 kPa	1441.9 ± 12
293.15 K, 500 kPa	1442.1 ± 12
293.15 K, 1000 kPa	1442.4 ± 12
293.15 K, 2000 kPa	1443.2 ± 12
293.15 K, 4990 kPa	1445.4 ± 12
293.15 K, 10000 kPa	1449 ± 12
293.15 K, 15000 kPa	1452.5 ± 12
293.15 K, 20000 kPa	1456 ± 12
293.15 K, 25010 kPa	1459.3 ± 12
293.15 K, 30000 kPa	1462.6 ± 12
293.15 K, 35000 kPa	1465.8 ± 12
293.15 K, 40000 kPa	1469.1 ± 12
293.15 K, 45000 kPa	1472.2 ± 12
293.15 K, 50000 kPa	1475.3 ± 12
293.15 K, 55000 kPa	1478.3 ± 12
293.15 K, 59970 kPa	1481.3 ± 12
294.15 K, 101.33 kPa	1440.37 ± 12
295.15 K, 101.33 kPa	1439.4 ± 12
296.15 K, 101.33 kPa	1438.43 ± 12
297.15 K, 101.33 kPa	1437.46 ± 12
298.15 K, 101.33 kPa	1436.5 ± 12
299.15 K, 101.33 kPa	1435.53 ± 12
300.15 K, 101.33 kPa	1434.57 ± 11
301.15 K, 101.33 kPa	1433.61 ± 11
302.15 K, 101.33 kPa	1432.64 ± 11
303.15 K, 100 kPa	1432.3 ± 12
303.15 K, 101.33 kPa	1431.69 ± 11
303.15 K, 250 kPa	1432.4 ± 12
303.15 K, 500 kPa	1432.6 ± 12
303.15 K, 1000 kPa	1432.9 ± 12
303.15 K, 2000 kPa	1433.7 ± 12
303.15 K, 5000 kPa	1436 ± 12
303.15 K, 10000 kPa	1439.7 ± 12
303.15 K, 15000 kPa	1443.3 ± 12
303.15 K, 20000 kPa	1446.8 ± 12
303.15 K, 25000 kPa	1450.2 ± 12
303.15 K, 30000 kPa	1453.6 ± 12
303.15 K, 34990 kPa	1456.9 ± 12
303.15 K, 40000 kPa	1460.2 ± 12
303.15 K, 45010 kPa	1463.4 ± 12
303.15 K, 50000 kPa	1466.5 ± 12
303.15 K, 54990 kPa	1469.6 ± 12
303.15 K, 60010 kPa	1472.7 ± 12
304.15 K, 101.33 kPa	1430.73 ± 11
305.15 K, 101.33 kPa	1429.77 ± 11
306.15 K, 101.33 kPa	1428.82 ± 11
307.15 K, 101.33 kPa	1427.86 ± 11
308.15 K, 101.33 kPa	1426.9 ± 11
309.15 K, 101.33 kPa	1425.95 ± 11
310.15 K, 101.33 kPa	1425 ± 11
311.15 K, 101.33 kPa	1424.05 ± 11
312.15 K, 101.33 kPa	1423.1 ± 11
313.15 K, 100 kPa	1422.8 ± 11
313.15 K, 101.33 kPa	1422.15 ± 11
313.15 K, 250 kPa	1422.9 ± 11
313.15 K, 500 kPa	1423.1 ± 11
313.15 K, 1000 kPa	1423.5 ± 11
313.15 K, 2000 kPa	1424.3 ± 11
313.15 K, 5000 kPa	1426.6 ± 11
313.15 K, 10000 kPa	1430.4 ± 12
313.15 K, 15010 kPa	1434.1 ± 12
313.15 K, 20010 kPa	1437.7 ± 12
313.15 K, 25000 kPa	1441.2 ± 12
313.15 K, 30000 kPa	1444.7 ± 12
313.15 K, 34990 kPa	1448 ± 12
313.15 K, 40000 kPa	1451.4 ± 12
313.15 K, 45010 kPa	1454.6 ± 12
313.15 K, 50010 kPa	1457.9 ± 12
313.15 K, 55000 kPa	1461 ± 12
313.15 K, 60000 kPa	1464.1 ± 12
314.15 K, 101.33 kPa	1421.2 ± 11
315.15 K, 101.33 kPa	1420.25 ± 11
316.15 K, 101.33 kPa	1419.3 ± 11
317.15 K, 101.33 kPa	1418.36 ± 11
318.15 K, 101.33 kPa	1417.41 ± 11

— the NIST ThermoML archive (doi:10.1016/j.fluid.2010.03.010)
